# Biological target: T1, androgen receptor (AR) (Homo sapiens, UniProt P10275)
# T1 construct: host or cells: HEK293
# T1 sequence (P10275 1-920): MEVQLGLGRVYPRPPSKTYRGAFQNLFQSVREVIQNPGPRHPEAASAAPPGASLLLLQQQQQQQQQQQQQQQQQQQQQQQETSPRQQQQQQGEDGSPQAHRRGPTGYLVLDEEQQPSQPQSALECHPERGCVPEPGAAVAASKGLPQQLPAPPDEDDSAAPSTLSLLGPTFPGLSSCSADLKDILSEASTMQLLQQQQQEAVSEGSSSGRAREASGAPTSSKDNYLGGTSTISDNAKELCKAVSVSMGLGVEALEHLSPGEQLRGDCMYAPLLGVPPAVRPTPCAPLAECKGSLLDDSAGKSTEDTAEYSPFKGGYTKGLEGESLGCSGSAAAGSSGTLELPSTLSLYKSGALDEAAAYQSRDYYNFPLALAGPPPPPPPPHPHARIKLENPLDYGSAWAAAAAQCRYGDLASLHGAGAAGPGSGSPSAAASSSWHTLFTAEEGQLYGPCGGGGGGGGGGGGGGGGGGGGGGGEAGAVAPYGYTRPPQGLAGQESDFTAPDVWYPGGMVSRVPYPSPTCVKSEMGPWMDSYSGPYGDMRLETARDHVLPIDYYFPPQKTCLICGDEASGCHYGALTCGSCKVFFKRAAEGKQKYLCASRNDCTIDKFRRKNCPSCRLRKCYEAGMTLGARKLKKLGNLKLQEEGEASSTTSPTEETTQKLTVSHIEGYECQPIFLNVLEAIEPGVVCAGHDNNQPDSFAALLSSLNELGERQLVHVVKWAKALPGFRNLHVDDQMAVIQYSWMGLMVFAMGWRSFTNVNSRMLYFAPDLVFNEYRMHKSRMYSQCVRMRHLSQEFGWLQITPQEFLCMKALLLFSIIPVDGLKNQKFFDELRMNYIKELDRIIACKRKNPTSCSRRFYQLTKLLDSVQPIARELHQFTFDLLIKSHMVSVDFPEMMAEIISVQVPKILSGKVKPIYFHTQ
# Test: Inhibitory activity on the function of androgen receptor (AR), luciferase reporter in transfected cells
# Assay type: cell-based
# Details: transfected with AR and pGL4.36, testosterone 2 nM, Steady-Glo
# Description: Experimental Example 2 the Inhibitory Activity of the Compound According to the Present Invention on the Function of Androgen Receptor (AR)
# Androgen receptor clone (Origene, Cat. No. RC235415)
# pGL4.36 vector (Promega, Cat. No. E1360)
# 1) The cell suspension was diluted with the culture medium for seeding cells to a concentration of 4.0×10^5 cells/ml, for plating and adding transfection reagents.
# 2) The diluted cell suspension was inoculated into a cell culture plate, with 100 μL per well, and the plate was placed in a cell incubator and cultured overnight.
# 3) The transfection reagent was prepared as 10 μL/well, and added into the cell culture plate after 15 min at room temperature, then the plate was placed in a cell incubator and cultured overnight.
# 4) The compound was diluted by a 3-fold gradient with TECAN sampler, to obtain 8 concentration gradients, and the final DMSO concentration was 0.25%. The diluted compound was cultured in a 37° C. incubator for 30 min.
# 5) 250 nL of testosterone at a final concentration of 2 nM was added to the control well with an […] sampler, placed in a cell incubator, and cultured overnight.
# 6) Steady-Glo was added at 100 μL/well to the cell culture plate, and then the plate was left at room temperature for 15 min, followed by reading on Envision.
# The data were analyzed according to the formula % Effect=(Sample value−LC)/(HC−LC)*100, using XL-fit software (provided by Business Solutions Ltd., version number XL fit 5.0). The inhibition rate of each compound against androgen receptor (AR) was calculated, and the half-inhibitory concentration IC50 of each compound against androgen receptor (AR) was further calculated.
row,Structure (SMILES),IC50 [µM]
1,CCN(c1ccc(C(C)(C)C#N)cc1)c1cc(-c2c(C)noc2C)ccc1C [Compound 110],1.6
2,CCN(c1ccc(-c2ccnn2C)cc1)c1cc(-c2c(C)noc2C)ccc1C [Compound 127],3.4
3,CCN(c1ccc(-c2c(C)noc2C)cc1)c1cc(-c2c(C)noc2C)ccc1C [Compound 104],1.3

# Tested on: LNCaP/AR cells
# Test: Inhibition of proliferation of prostate cancer cells LNCaP/AR (CCK-8)
# Assay type: cell-based
# Details: 144 h, 6 days culture, CCK-8, OD 450 nm, read-out: IC50 (μM), inhibitory activity on prostate cancer cell LNCap/AR
# Description: 1. Biological determination of the inhibitory effect on the proliferation of prostate cancer cells LNCaP/AR
# Cell culture medium: RIPM1640 media, 10% FBS, 1% Pen Strep;
# (§1) 1) LNCaP/AR cells were subcultured in cell culture medium, and the cells in good growth condition were seeded in a 96-well plate, with 80 μL per well (i.e. 1000 cells per well), and cultured overnight in a 37° C., 5% CO2 cell incubator.
# 2) The drug was prepared with dimethylsulfoxide (DMSO) as a 10 mM stock solution.
# (§2) Immediately before use, the stock solution was diluted 3 times with DMSO, and then diluted as a 3-fold gradient to obtain 9 concentration gradients. Then, the compound of each concentration was diluted 200 times with the culture media (to ensure that the DMSO concentration in the culture system was 0.1%), and two multiple holes were set for each concentration. 20 μL of the diluted compound was added to the cell culture well (with a final concentration of 10 μM, 3.3 μM, 1.1 μM . . . ), and then shook gently to mix. In addition, three negative control wells with only cells and three blank control wells with only culture medium were included (6 wells being each added with DMSO diluted 200 times with 20 μL culture medium).
# (§3) 1) After culturing for 6 days, 10 μL of CCK-8 was added to each well and continued culturing for 1 hour in a 37° C., 5% CO2 cell incubator.
# (§4) 2) The absorbance (OD value) was measured at 450 nm using a multifunctional microplate reader.
# (§5) 3) The data were analyzed by the Dose-response-inhibition equation in the software GraphPad Prism5, and the IC50 value was obtained.
row,Structure (SMILES),IC50 [µM]
1,CCN(c1ccc(C(C)(C)C#N)cc1)c1cc(-c2c(C)noc2C)ccc1C [Compound 110],0.93
2,CCN(c1ccc(C#N)c(Cl)c1)c1cc(-c2c(C)nn(CC)c2C)ccc1C [Compound 3],1.4
3,CCN(c1ccc(S(C)(=O)=O)cc1)c1cc(-c2c(C)noc2C)ccc1C [Compound 113],2.53
4,CCN(c1ccc(-c2cnc[nH]2)cc1)c1cc(-c2c(C)noc2C)ccc1C [Compound 107],3.67
5,"CCN(c1ccc(-c2csc(N)n2)cc1)c1cc(-c2c(C)noc2C)ccc1C [Compound 98, 4-(4-((5-(3,5-dimethylisoxazol-4-)-2-methylphenyl)(ethyl)amino)phenyl)thiazol-2-amine]",4.77
6,"CCN(c1ccc2nc[nH]c2c1)c1cc(-c2c(C)noc2C)ccc1C [Compound 115, N-(5-(3,5-dimethylisoxazol-4-yl)-2-methylphenyl) N-ethyl-1H-benzo[d]imidazole-6-amine]",1.3
7,CCN(c1ccc2[nH]ncc2c1)c1cc(-c2c(C)noc2C)ccc1C [Compound 133],8.74
8,CCN(c1ccc(-n2ccnc2)cc1)c1cc2c(C)noc2cc1C [Compound 47],3.3
9,CCN(c1ccc(-n2ccnc2)cc1)c1cc(-c2c(C)n[nH]c2C)ccc1C [Compound 21],3.98
10,"CCN(c1ccc(N)cc1)c1cc(-c2c(C)noc2C)ccc1C [Compound 100, N-1-(5-(3,5-dimethylisoxazol-4-yl)-2-methylphenyl) N1-ethylbenzene-1,4-diamine]",0.7
11,CCN(c1ccc(-c2nnco2)cc1)c1cc(-c2c(C)noc2C)ccc1C [Compound 129],1.13
12,Cc1ccc(-c2c(C)noc2C)cc1N(CCO)c1ccc(-n2ccnc2)c(Br)c1 [Compound 58],2.32
13,"CCN(c1ccc(-c2csnn2)cc1)c1cc(-c2c(C)noc2C)ccc1C [Compound 108, N-(4-(1,2,3-thiazol-4-yl)phenyl)-5-(3,5-dimethylisoxazol-4-yl)-N-ethyl-2-methylaniline]",0.76
14,Cc1ccc(-c2c(C)noc2C)cc1Nc1ccc(-c2c(C)noc2C)cc1 [Compound 119],0.17
15,CCN(c1ccc(-c2ccon2)cc1)c1cc(-c2c(C)noc2C)ccc1C [Compound 134],0.89
16,CCN(c1ccc(C(N)=O)cc1)c1cc(-c2c(C)noc2C)ccc1C [Compound 123],3.03
17,CCN(c1ccc(C2(C#N)CCC2)cc1)c1cc(-c2c(C)noc2C)ccc1C [Compound 112],1.86
18,CCN(c1ccc(C#N)c(Cl)c1)c1cc(-c2c(C)n[nH]c2C)ccc1C [Compound 1],0.33
19,CCN(c1ccc(-c2c[nH]nn2)cc1)c1cc(-c2c(C)noc2C)ccc1C [Compound 131],0.88
20,CCN(c1ccc(-n2ccnc2)cc1)c1cc2onc(C)c2cc1C [Compound 48],3.7
21,CCN(c1ccc(-n2ccnc2)cc1)c1cc(-c2c(C)nn(CCO)c2C)ccc1C [Compound 23],6.42

row,Structure (SMILES),IC50 [µM]
1,CCN(c1ccc(C#N)c(C(F)(F)F)c1)c1cc(-c2c(C)noc2C)ccc1C [Compound 16],1.66
2,CCN(c1ccc(-n2ccnc2)cc1)c1cc(-c2c(C)noc2C)ccc1C [Compound 25],1.25
3,CCN(c1ccc([N+](=O)[O-])cc1)c1cc(-c2c(C)noc2C)ccc1C [Compound 99],0.4
4,CCN(c1ccc2cn[nH]c2c1)c1cc(-c2c(C)noc2C)ccc1C [Compound 114],0.89
5,CCN(c1ccc(-n2cncn2)cc1)c1cc(-c2c(C)noc2C)ccc1C [Compound 35],1.2
6,CCN(c1ccc2ncn(C)c2c1)c1cc(-c2c(C)noc2C)ccc1C [Compound 132],2.54
7,CCN(c1ccc(-n2cnc(C)c2)c(Br)c1)c1cc(-c2c(C)noc2C)ccc1C [Compound 57],2.38
8,"CCN(c1ccc(-c2ncon2)cc1)c1cc(-c2c(C)noc2C)ccc1C [Compound 105, N-(4-(1,2,4-oxadiazole-3-yl)phenyl)-5-(3,5-dimethylisoxazol-4-yl)-N-ethyl-2-methylaniline]",0.71
9,CCN(c1ccc(-n2ccnc2)c(Br)c1)c1cc(-c2c(C)noc2C)cnc1C [Compound 67],2.03
10,CCN(c1ccc(-n2cnc(Cl)c2)c(Br)c1)c1cc(-c2c(C)noc2C)ccc1C [Compound 43],2.79
11,CCN(c1ccc(C#N)c(Cl)c1)c1cc(-c2c(C)nn(C(C)C)c2C)ccc1C [Compound 4],1.4
12,CCN(c1ccc(-c2cncn2C)cc1)c1cc(-c2c(C)noc2C)ccc1C [Compound 106],0.7
13,"CCN(c1ccc(-c2cc(C)[nH]n2)cc1)c1cc(-c2c(C)noc2C)ccc1C [Compound 97, 5-(3,5-dimethylisoxazol-4-)-N-ethyl-2-methyl-N-(4-(5-methyl-1H-pyrazol-3-yl)phenyl)aniline]",3.23
14,CCN(c1ccc(-c2cn[nH]c2C)cc1)c1cc(-c2c(C)noc2C)ccc1C [Compound 126],0.99
15,Cc1ccc(-c2c(C)n[nH]c2C)cc1N(CCCCCO)c1ccc(C#N)c(Cl)c1 [Compound 6],3.67
16,CCCn1nc(C)c(-c2ccc(C)c(N(CC)c3ccc(C#N)c(Cl)c3)c2)c1C [Compound 5],1.45
17,CCN(c1ccc(OC(F)(F)F)cc1)c1cc(-c2c(C)noc2C)ccc1C [Compound 109],4.46
18,CCN(c1ccc(C#N)c(Cl)c1)c1cc(-c2[nH]ncc2C)ccc1C [Compound 7],2.19
19,CCN(c1ccc(-c2nnc[nH]2)cc1)c1cc(-c2c(C)noc2C)ccc1C [Compound 130],1.16
20,"CCN(c1ccc(-c2cn(C)nn2)cc1)c1cc(-c2c(C)noc2C)ccc1C [Compound 102, 5-(3,5-dimethylisoxazol-4-yl)-N-ethyl-2-methyl-N-(4-(1-methyl-1H-1,2,3-triazol-4-yl)phenyl)aniline]",1.45

# Tested on: 22RV1 cells
# Test: Inhibition of proliferation of other prostate cancer cells: 22RV1
# Assay type: cell-based
# Details: Homo sapiens, same method as LNCaP/AR
# Description: as §1, §2, §3, §4, §5
# 2. Biological determination of the inhibitory effect on the proliferation of other prostate cancer cells
# The inhibitory activity of the compound according to the present invention on other drug-resistant prostate cancer cells was measured by the same method as described above, in which VCaP and 22RV1 cells were commercially available.
row,Structure (SMILES),IC50 [µM]
1,CCN(c1ccc(-c2nnco2)cc1)c1cc(-c2c(C)noc2C)ccc1C [Compound 129],9.79
2,CCN(c1ccc(-c2ccon2)cc1)c1cc(-c2c(C)noc2C)ccc1C [Compound 134],6.06
3,CCN(c1ccc(C(N)=O)cc1)c1cc(-c2c(C)noc2C)ccc1C [Compound 123],5.64
4,CCN(c1ccc(OC)cc1)c1cc(-c2c(C)noc2C)ccc1C [Compound 101],0.07
5,Cc1ccc(-c2c(C)noc2C)cc1Nc1ccc(Br)cc1 [Compound 120],0.63
6,CCN(c1ccc(-c2cn[nH]c2C)cc1)c1cc(-c2c(C)noc2C)ccc1C [Compound 126],3.17

# Source: patent US20220177459A1, “AROMATIC AMINE COMPOUND AND USE THEREOF IN PREPARATION OF AR AND BRD4 DUAL INHIBITORS AND REGULATORS” (HINOVA PHARMACEUTICALS INC., priority 2019, published 2022)
